Data as given in PubChem BioAssay AID1963444 (Molecular Pharmacology Branch, DTP, NCI, 2024).

Tested on: HSSY-II complex spheroid growth, percent test/control
Experiment: Anticancer human tumor HSSY-II cell line growth inhibition [Asc];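 further: spheroids exposed to drug for 7 days before reading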
Details: for IC50: curve of first compound; for viability, T/C: stronger effect = lower value
In short: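 Concentration series start at each agent's clinical Cmax, or at 10 microM when none is established, and drop in half-log steps; agents are applied alone or together to complex spheroids built with HUVEC and hMSC.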

[1] = second compound 0.01 µM, first compound 0.00316 µM
[2] = second compound 0.01 µM, first compound 0.01 µM
[3] = second compound 0.01 µM, first compound 0.0316 µM
[4] = second compound 0.01 µM, first compound 0.1 µM
[5] = second compound 0.01 µM, first compound 0.316 µM
[6] = second compound 0.01 µM, first compound 1 µM
[7] = second compound 0.0316 µM, first compound 0.00316 µM
[8] = second compound 0.0316 µM, first compound 0.01 µM
[9] = second compound 0.0316 µM, first compound 0.0316 µM
[10] = second compound 0.0316 µM, first compound 0.1 µM
[11] = second compound 0.0316 µM, first compound 0.316 µM
[12] = second compound 0.0316 µM, first compound 1 µM
[13] = second compound 0.1 µM, first compound 0.00316 µM
[14] = second compound 0.1 µM, first compound 0.01 µM
[15] = second compound 0.1 µM, first compound 0.0316 µM
[16] = second compound 0.1 µM, first compound 0.1 µM
[17] = second compound 0.1 µM, first compound 0.316 µM
[18] = second compound 0.1 µM, first compound 1 µM
[19] = second compound 0.316 µM, first compound 0.00316 µM
[20] = second compound 0.316 µM, first compound 0.01 µM
[21] = second compound 0.316 µM, first compound 0.0316 µM
[22] = second compound 0.316 µM, first compound 0.1 µM
[23] = second compound 0.316 µM, first compound 0.316 µM
[24] = second compound 0.316 µM, first compound 1 µM
[25] = second compound 1 µM, first compound 0.00316 µM
[26] = second compound 1 µM, first compound 0.01 µM
[27] = second compound 1 µM, first compound 0.0316 µM
[28] = second compound 1 µM, first compound 0.1 µM
[29] = second compound 1 µM, first compound 0.316 µM
[30] = second compound 1 µM, first compound 1 µM

CCN1CCN(Cc2ccc(Nc3ncc(F)c(-c4cc(F)c5nc(C)n(C(C)C)c5c4)n3)nc2)CC1 + CNC(C)C(=O)NC1CN(S(=O)(=O)c2cccc(S(=O)(=O)N3CCC4CCC(C(=O)NC(c5ccccc5)c5ccccc5)N4C(=O)C(NC(=O)C(C)NC)C3)c2)CCC2CCC(C(=O)NC(c3ccccc3)c3ccccc3)N2C1=O
IC50 (second compound 0.01 µM): 120 nM
IC50 (second compound 0.0316 µM): 150 nM
IC50 (second compound 0.1 µM): 111 nM
IC50 (second compound 0.316 µM): 87.5 nM
IC50 (second compound 1 µM): 96 nM
viability, T/C [1]: 95.3%
viability, T/C [2]: 92.5%
viability, T/C [3]: 60.6%
viability, T/C [4]: 54.2%
viability, T/C [5]: 39.9%
viability, T/C [6]: 23.2%
viability, T/C [7]: 78.1%
viability, T/C [8]: 83.9%
viability, T/C [9]: 66.7%
viability, T/C [10]: 53.2%
viability, T/C [11]: 42.3%
viability, T/C [12]: 23.4%
viability, T/C [13]: 68.5%
viability, T/C [14]: 78.3%
viability, T/C [15]: 59.1%
viability, T/C [16]: 51.5%
viability, T/C [17]: 37.4%
viability, T/C [18]: 24.1%
viability, T/C [19]: 86.5%
viability, T/C [20]: 89%
viability, T/C [21]: 68.9%
viability, T/C [22]: 45.2%
viability, T/C [23]: 37.6%
viability, T/C [24]: 23.9%
viability, T/C [25]: 88%
viability, T/C [26]: 76.8%
viability, T/C [27]: 66.9%
viability, T/C [28]: 46.7%
viability, T/C [29]: 35.4%
viability, T/C [30]: 18.8%

NC(=O)C(=Cn1cnc(-c2cc(C(F)(F)F)cc(C(F)(F)F)c2)n1)c1cncnc1 + CNC(C)C(=O)NC1CN(S(=O)(=O)c2cccc(S(=O)(=O)N3CCC4CCC(C(=O)NC(c5ccccc5)c5ccccc5)N4C(=O)C(NC(=O)C(C)NC)C3)c2)CCC2CCC(C(=O)NC(c3ccccc3)c3ccccc3)N2C1=O
IC50 (second compound 0.01 µM): 10.6 nM
IC50 (second compound 0.0316 µM): 14.3 nM
IC50 (second compound 0.1 µM): 12.9 nM
IC50 (second compound 0.316 µM): 11.1 nM
IC50 (second compound 1 µM): 12.7 nM
viability, T/C (second compound 0.01 µM, first compound 0.000949 µM): 93.6%
viability, T/C (second compound 0.01 µM, first compound 0.003 µM): 78.1%
viability, T/C (second compound 0.01 µM, first compound 0.00949 µM): 53.5%
viability, T/C (second compound 0.01 µM, first compound 0.03 µM): 23.7%
viability, T/C (second compound 0.01 µM, first compound 0.0949 µM): 11.5%
viability, T/C (second compound 0.01 µM, first compound 0.3 µM): 0.44%
viability, T/C (second compound 0.0316 µM, first compound 0.000949 µM): 77.6%
viability, T/C (second compound 0.0316 µM, first compound 0.003 µM): 79.4%
viability, T/C (second compound 0.0316 µM, first compound 0.00949 µM): 57.8%
viability, T/C (second compound 0.0316 µM, first compound 0.03 µM): 32.5%
viability, T/C (second compound 0.0316 µM, first compound 0.0949 µM): 9.75%
viability, T/C (second compound 0.0316 µM, first compound 0.3 µM): 0.64%
viability, T/C (second compound 0.1 µM, first compound 0.000949 µM): 76.4%
viability, T/C (second compound 0.1 µM, first compound 0.003 µM): 68.2%
viability, T/C (second compound 0.1 µM, first compound 0.00949 µM): 58.9%
viability, T/C (second compound 0.1 µM, first compound 0.03 µM): 28.8%
viability, T/C (second compound 0.1 µM, first compound 0.0949 µM): 7.63%
viability, T/C (second compound 0.1 µM, first compound 0.3 µM): 0.48%
viability, T/C (second compound 0.316 µM, first compound 0.000949 µM): 91.1%
viability, T/C (second compound 0.316 µM, first compound 0.003 µM): 73.5%
viability, T/C (second compound 0.316 µM, first compound 0.00949 µM): 55.1%
viability, T/C (second compound 0.316 µM, first compound 0.03 µM): 29.3%
viability, T/C (second compound 0.316 µM, first compound 0.0949 µM): 6.77%
viability, T/C (second compound 0.316 µM, first compound 0.3 µM): 0.44%
viability, T/C (second compound 1 µM, first compound 0.000949 µM): 88.1%
viability, T/C (second compound 1 µM, first compound 0.003 µM): 79.8%
viability, T/C (second compound 1 µM, first compound 0.00949 µM): 56.3%
viability, T/C (second compound 1 µM, first compound 0.03 µM): 29.9%
viability, T/C (second compound 1 µM, first compound 0.0949 µM): 5.98%
viability, T/C (second compound 1 µM, first compound 0.3 µM): 0.56%

O=C(c1ccc(F)c(F)c1Nc1ccc(I)cc1F)N1CC(O)([C@@H]2CCCCN2)C1 + CNC(C)C(=O)NC1CN(S(=O)(=O)c2cccc(S(=O)(=O)N3CCC4CCC(C(=O)NC(c5ccccc5)c5ccccc5)N4C(=O)C(NC(=O)C(C)NC)C3)c2)CCC2CCC(C(=O)NC(c3ccccc3)c3ccccc3)N2C1=O
IC50 (second compound 0.01 µM): 587 nM
IC50 (second compound 0.0316 µM): 516 nM
IC50 (second compound 0.1 µM): 472 nM
IC50 (second compound 0.316 µM): 416 nM
IC50 (second compound 1 µM): 515 nM
viability, T/C [1]: 76.6%
viability, T/C [2]: 87.8%
viability, T/C [3]: 112%
viability, T/C [4]: 108%
viability, T/C [5]: 82.2%
viability, T/C [6]: 22.4%
viability, T/C [7]: 95.7%
viability, T/C [8]: 99.8%
viability, T/C [9]: 99.2%
viability, T/C [10]: 107%
viability, T/C [11]: 69%
viability, T/C [12]: 24.4%
viability, T/C [13]: 93%
viability, T/C [14]: 74.1%
viability, T/C [15]: 98.9%
viability, T/C [16]: 99.8%
viability, T/C [17]: 65.8%
viability, T/C [18]: 20.6%
viability, T/C [19]: 98.9%
viability, T/C [20]: 100%
viability, T/C [21]: 83.1%
viability, T/C [22]: 111%
viability, T/C [23]: 59.2%
viability, T/C [24]: 20.4%
viability, T/C [25]: 98.3%
viability, T/C [26]: 114%
viability, T/C [27]: 99.7%
viability, T/C [28]: 95.1%
viability, T/C [29]: 70.7%
viability, T/C [30]: 21.9%
